Converted amounts (≈) assume the structure as drawn. “And” between values parts separate entries of the source, which are not always exact repeats. Equal entries are not always repeated.
Assays:
Format in all cases: physicochemical
[1] = Solubility in DMSO-water binary mixtures; conditions: for solubility at 24 h: 25 °C, thermodynamic from solid
Procedure: (§1) The calibration curves for each derivative were obtained using successful dilutions of initial stock solutions followed by spectrophotometric measurements of the obtained solutions with decreasing concentration. The concentration ranges for the derivatives 1, 2, and 3 were 0.0081–0.0405 mg/mL, 0.0077–0.0385 mg/mL, and 0.0068–0.017 mg/mL, respectively. Methanol was used both as a solvent, as well as a reference for spectrophotometric measurements. […] The A360 spectrophotometer from AOE Instruments was used for the preparation of the calibration curves. […] Three calibration curves were prepared for each derivative and then averaged.
(§2) A multi-step procedure was employed in order to find the solubility of the studied derivatives in the selected solvents. First of all, the excess amount of the considered compound was added to test tubes containing either neat solvents or their mixtures with water in different proportions, thus forming binary solvents. Saturated solutions were obtained in this way, placed in a Shaker Incubator ES-20/60 from Biosan, and incubated for 24 h at 298.1 K. The temperature adjustment was possible with a 0.1-degree accuracy, and the variance within a 24 h cycle was 0.5 degrees. The samples were simultaneously mixed at 60 rev/min. After incubation, the samples were filtered with the help of plastic syringes equipped with PTFE filters with 0.22 µm pore size. The obtained filtrates were diluted with methanol in another set of test tubes. In order to determine the mole fractions of a solute in the solution, 1 mL of the filtered samples was weighed in 10 mL volumetric flasks using a RADWAG AS 110 R2.PLUS analytical balance. The samples diluted with methanol were measured spectrophotometrically using the same instrument as was used in the case of calibration curves. The spectra were recorded in the wavelength range of 190–500 nm, and the resolution was 1 nm. Methanol was used if further dilution of the sample was required, and it was also used as a reference for calibrating the spectrophotometer. The absorbance values at 315 nm, 321 nm, and 321 nm were taken into account for derivatives 1, 2, and 3, respectively. Based on the calibration curves, the concentration of the solute in the samples was determined together with its mole fraction. Three separate measurements were conducted, and the final values are the results of averaging them.

[2] = Solubility in NMP-water binary mixtures; conditions: for solubility at 24 h: thermodynamic from solid
Procedure: as §1, §2

[3] = Solubility in neat solvents, shake-flask with spectrophotometric determination; conditions: for solubility at 24 h: 25 °C, organic solvent or mixture, thermodynamic from solid
Procedure: as §1, §2

[4] = neat γ-nonanoic lactone, 298.1 K

O=C1Nc2ccc([N+](=O)[O-])cc2C1=NNC(=O)c1cccc([N+](=O)[O-])c1 [derivative 3, 3-nitro-N′-[5-nitro-2-oxo-1,2-dihydro-3H-indol-3-ylidene]benzohydrazide]
solubility at 24 h ([1]; DMSO-water binary mixture, aqueous with cosolvent or surfactant or cyclodextrin, x*DMSO 0.1, 298.1 K): 860 µg/mL (≈ 2.42 mM)
solubility at 24 h ([1]; DMSO-water binary mixture, aqueous with cosolvent or surfactant or cyclodextrin, x*DMSO 0.2, 298.1 K): 1580 µg/mL (≈ 4.45 mM)
solubility at 24 h ([1]; DMSO-water binary mixture, aqueous with cosolvent or surfactant or cyclodextrin, x*DMSO 0.3, 298.1 K): 2480 µg/mL (≈ 6.98 mM)
solubility at 24 h ([1]; DMSO-water binary mixture, aqueous with cosolvent or surfactant or cyclodextrin, x*DMSO 0.4, 298.1 K): 3300 µg/mL (≈ 9.29 mM)
solubility at 24 h ([1]; DMSO-water binary mixture, aqueous with cosolvent or surfactant or cyclodextrin, x*DMSO 0.5, 298.1 K): 3750 µg/mL (≈ 10.6 mM)
solubility at 24 h ([1]; DMSO-water binary mixture, aqueous with cosolvent or surfactant or cyclodextrin, x*DMSO 0.6, 298.1 K): 3950 µg/mL (≈ 11.1 mM)
solubility at 24 h ([1]; DMSO-water binary mixture, aqueous with cosolvent or surfactant or cyclodextrin, x*DMSO 0.7, 298.1 K): 4010 µg/mL (≈ 11.3 mM)
solubility at 24 h ([1]; DMSO-water binary mixture, aqueous with cosolvent or surfactant or cyclodextrin, x*DMSO 0.8, 298.1 K): 3850 µg/mL (≈ 10.8 mM)
solubility at 24 h ([1]; DMSO-water binary mixture, aqueous with cosolvent or surfactant or cyclodextrin, x*DMSO 0.9, 298.1 K): 3540 µg/mL (≈ 9.96 mM)
solubility at 24 h ([1]; DMSO-water series, organic solvent or mixture, x*DMSO 1.0, 298.1 K): 3090 µg/mL (≈ 8.7 mM)
solubility x ([1]; x*DMSO 0.2, 298.1 K): 1.21 (0.01) × 10^−4 mole fraction
solubility x ([1]; x*DMSO 0.3, 298.1 K): 2.29 (0.01) × 10^−4 mole fraction
solubility x ([1]; x*DMSO 0.4, 298.1 K): 3.57 (0.03) × 10^−4 mole fraction
solubility x ([1]; x*DMSO 0.5, 298.1 K): 4.59 (0.04) × 10^−4 mole fraction
solubility x ([1]; x*DMSO 0.6, 298.1 K): 5.45 (0.03) × 10^−4 mole fraction
solubility x ([1]; x*DMSO 0.7, 298.1 K): 6.09 (0.03) × 10^−4 mole fraction
solubility x ([1]; x*DMSO 0.8, 298.1 K): 6.47 (0.04) × 10^−4 mole fraction
solubility x ([1]; x*DMSO 0.9, 298.1 K): 6.51 (0.04) × 10^−4 mole fraction
solubility x ([1]; x*DMSO 1.0, 298.1 K): 6.12 (0.07) × 10^−4 mole fraction
solubility at 24 h ([2]; NMP-water binary mixture, x*NMP 0.1, 25 °C, aqueous with cosolvent or surfactant or cyclodextrin, x*NMP 0.1, 298.1 K): 1580 µg/mL (≈ 4.45 mM)
solubility at 24 h ([2]; NMP-water binary mixture, x*NMP 0.2, 25 °C, aqueous with cosolvent or surfactant or cyclodextrin, x*NMP 0.2, 298.1 K): 3290 µg/mL (≈ 9.26 mM)
solubility at 24 h ([2]; NMP-water binary mixture, x*NMP 0.3, 25 °C, aqueous with cosolvent or surfactant or cyclodextrin, x*NMP 0.3, 298.1 K): 4940 µg/mL (≈ 13.9 mM)
solubility at 24 h ([2]; NMP-water binary mixture, x*NMP 0.4, 25 °C, aqueous with cosolvent or surfactant or cyclodextrin, x*NMP 0.4, 298.1 K): 6490 µg/mL (≈ 18.3 mM)
solubility at 24 h ([2]; NMP-water binary mixture, x*NMP 0.7, 25 °C, aqueous with cosolvent or surfactant or cyclodextrin, x*NMP 0.7, 298.1 K): 9560 µg/mL (≈ 26.9 mM)
solubility at 24 h ([2]; NMP-water binary mixture, x*NMP 0.8, 25 °C, aqueous with cosolvent or surfactant or cyclodextrin, x*NMP 0.8, 298.1 K): 10200 µg/mL (≈ 28.7 mM)
solubility at 24 h ([2]; NMP-water binary mixture, x*NMP 0.9, 25 °C, aqueous with cosolvent or surfactant or cyclodextrin, x*NMP 0.9, 298.1 K): 9710 µg/mL (≈ 27.3 mM)
solubility at 24 h ([2]; NMP-water binary solvent, 25 °C, aqueous with cosolvent or surfactant or cyclodextrin, x*NMP 0.5, 298.1 K): 7720 µg/mL (≈ 21.7 mM)
solubility at 24 h ([2]; NMP-water binary solvent, 25 °C, aqueous with cosolvent or surfactant or cyclodextrin, x*NMP 0.6, 298.1 K): 8710 µg/mL (≈ 24.5 mM)
solubility at 24 h ([2]; NMP-water series, x*NMP 1.0, 25 °C, organic solvent or mixture, x*NMP 1.0, 298.1 K): 8990 µg/mL (≈ 25.3 mM)
solubility x ([2]; x*NMP 0.1, 298.1 K): 1.12 (0.01) × 10^−4 mole fraction
solubility x ([2]; x*NMP 0.2, 298.1 K): 3.05 (0.03) × 10^−4 mole fraction
solubility x ([2]; x*NMP 0.3, 298.1 K): 5.74 (0.10) × 10^−4 mole fraction
solubility x ([2]; x*NMP 0.4, 298.1 K): 8.92 (0.10) × 10^−4 mole fraction
solubility x ([2]; x*NMP 0.5, 298.1 K): 1.24 (0.01) × 10^−3 mole fraction
solubility x ([2]; x*NMP 0.6, 298.1 K): 1.60 (0.02) × 10^−3 mole fraction
solubility x ([2]; x*NMP 0.7, 298.1 K): 1.99 (0.02) × 10^−3 mole fraction
solubility x ([2]; x*NMP 0.8, 298.1 K): 2.29 (0.02) × 10^−3 mole fraction
solubility x ([2]; x*NMP 0.9, 298.1 K): 2.40 (0.03) × 10^−3 mole fraction
solubility x ([2]; x*NMP 1.0, 298.1 K): 2.44 (0.06) × 10^−3 mole fraction
solubility at 24 h ([3]; neat DMF, 298.1 K): 1690 µg/mL (≈ 4.76 mM)
solubility at 24 h ([3]; neat DMP, 298.1 K): 80 µg/mL (≈ 0.225 mM)
solubility at 24 h ([3]; neat DMSO, 298.1 K): 3090 µg/mL (≈ 8.7 mM)
solubility at 24 h ([3]; neat NMP, 298.1 K): 8990 µg/mL (≈ 25.3 mM)
solubility at 24 h ([3]; neat acetone, 298.1 K): 210 µg/mL (≈ 0.591 mM)
solubility at 24 h ([3]; neat acetonitrile, 298.1 K): 170 µg/mL (≈ 0.479 mM)
solubility at 24 h ([3]; neat cyrene, 298.1 K): 290 µg/mL (≈ 0.816 mM)
solubility at 24 h ([3]; neat diglyme, 298.1 K): 520 µg/mL (≈ 1.46 mM)
solubility at 24 h ([3]; neat dioxane, 298.1 K): 310 µg/mL (≈ 0.873 mM)
solubility at 24 h ([3]; neat ethyl lactate, 298.1 K): 180 µg/mL (≈ 0.507 mM)
solubility at 24 h ([3]; neat methanol, 298.1 K): 60 µg/mL (≈ 0.169 mM)
solubility at 24 h ([3]; neat tetraglyme, 298.1 K): 430 µg/mL (≈ 1.21 mM)
solubility at 24 h ([3]; neat triglyme, 298.1 K): 230 µg/mL (≈ 0.647 mM)
solubility at 24 h ([3]; neat γ-heptalactone, 298.1 K): 440 µg/mL (≈ 1.24 mM)
solubility at 24 h [3, 4]: 280 µg/mL (≈ 0.788 mM)
solubility at 24 h ([3]; neat 1-butanol): 20 µg/mL (≈ 0.0563 mM)
solubility at 24 h ([3]; neat 1-propanol): 20 µg/mL (≈ 0.0563 mM)
solubility at 24 h ([3]; neat 4FM): 940 µg/mL (≈ 2.65 mM)
solubility x ([3]; neat 4FM, 298.1 K): 2.65 (0.11) × 10^−4 mole fraction
solubility x ([3]; neat DMF, 298.1 K): 3.69 × 10^−4 mole fraction and 3.69 (0.05) × 10^−4 mole fraction
solubility x ([3]; neat DMP, 298.1 K): 0.27 (0.01) × 10^−4 mole fraction
solubility x ([3]; neat DMSO, 298.1 K): 6.12 × 10^−4 mole fraction and 6.12 (0.10) × 10^−4 mole fraction
solubility x ([3]; neat NMP, 298.1 K): 2.44 × 10^−3 mole fraction and 2.44 (0.07) × 10^−3 mole fraction
solubility x ([3]; neat acetone, 298.1 K): 0.43 (0.01) × 10^−4 mole fraction
solubility x ([3]; neat cyrene, 298.1 K): 0.83 (0.01) × 10^−4 mole fraction
solubility x ([3]; neat diglyme, 298.1 K): 2.08 (0.07) × 10^−4 mole fraction
solubility x ([3]; neat dioxane, 298.1 K): 0.74 (0.01) × 10^−4 mole fraction
solubility at 24 h ([3]; neat ethanol): 30 µg/mL (≈ 0.0844 mM)
solubility x ([3]; neat ethyl lactate, 298.1 K): 0.57 (0.01) × 10^−4 mole fraction
solubility x ([3]; neat tetraglyme, 298.1 K): 2.67 (0.09) × 10^−4 mole fraction
solubility x ([3]; neat triglyme, 298.1 K): 1.17 (0.05) × 10^−4 mole fraction
solubility x ([3]; neat γ-heptalactone, 298.1 K): 1.59 (0.04) × 10^−4 mole fraction
solubility x [3, 4]: 1.26 (0.05) × 10^−4 mole fraction
solubility at 24 h ([3]; neat ε-caprolactone): 340 µg/mL (≈ 0.957 mM)
solubility x ([3]; neat ε-caprolactone, 298.1 K): 1.02 (0.02) × 10^−4 mole fraction
